According to patent US20240016943A1, “SYNTHETIC DNA BINDING DOMAINS AND USES THEREOF” (The University of Chicago, priority 2020, published 2024):
Values belong to the substance of their own block, whether it stands above or below them. Starred links: 1 amine or outer side, 2 acyl side, 3 side chain; linkers in the order of their positions; H or OH if unused. Positions of bridges follow the written chain, without caps; N, C: chain ends. Non-standard residues stand in square brackets, D forms with d. Chains are numbered I, II in the order given. X1 = O=C1CC([*:2])C(=O)N1CC(=O)[*:1]; S5 = C=CCCC[C@](C)(N)C(=O)O; Nle = CCCC[C@H](N)C(=O)O; Aib = CC(C)(N)C(=O)O

Columns and labels:
E-box probe = assay: Conditioned media binding assay (retained E-box binding by EMSA); format: in vitro ADME; settings: HeLa conditioned media, 37° C.
Description: HeLa cells were grown to 90% confluency in a 6 cm plate and the media was collected. 10 μM STR was resuspended in 0.5 mL of the conditioned media and incubated with gentle shaking at 37° C. At 0, 24 and 48 hrs., treatment media (2 μL) was diluted into 48 μL of 1× EMSA binding buffer containing 5 nM E-box probe. DNA binding was measured using an electrophoretic mobility shift assay. Fraction bound to E-box probe was calculated by dividing the band intensity of bound DNA by the sum of the bound DNA+free DNA.

[1] = tested on: E-box oligonucleotide probe; assay: DNA competition (specificity) EMSA with unlabeled competitor oligo; format: binding; settings: 25 nM STR116, 10 nM STR118, or 5 nM MAX; 0-625 nM competitor
Description: (§1) For direct DNA binding experiments, STRs were serial diluted (3-fold increments) at 2× concentration in 20 μL of 1× binding buffer (20 mM HEPES pH 8.0, 150 mM NaCl, 5% glycerol, 1 mM EDTA, 2 mM MgCl2, 0.5 mg/mL BSA, 1 mM DTT, 0.05% NP-40). 20 μL of 10 nM IRD700-labeled E-box probe in 1× binding buffer was added and samples were incubated for 30 min at RT followed by 15 min at 4° C. 3.5 μL of each reaction was loaded on a 6% acrylamide, 0.5× TBE gel equilibrated to 4° C. Higher affinity compounds (e.g., STR116 and STR118) were run at 10-fold lower concentration of compound and 0.5 nM final concentration of IRD-labeled oligo. Electrophoresis was carried out for 60 min at 110 V and 4° C. with 0.5× TBE+1 mM MgCl2 running buffer. Gels were pre-run at 110 V for 60 min prior to sample loading. For specificity experiments, 25 nM STR116, 10 nM STR118, or 5 nM MAX, and 5 nM labeled E-box probe were incubated with 0, 5, 25, 125, or 625 nM unlabeled competitor oligo for 30 min at RT in binding buffer. For protein competition experiments, 1 nM TRD-Ebox oligo was added to a mixture of STR (0-1 mM) and 30 nM protein (MAX or MYC:MAX) and incubated for 30 minutes at room temperature in binding buffer. For DNA probe specificity experiments B-Z (100 nM), STR69 (1 μM), and STR640 (125 nM) and MAX (10 nM) were incubated with 1 nM IRD-labeled oligo and 0.01 mg/ml salmon sperm DNA for 30 minutes at RT in binding buffer. All samples were equilibrated to 4° C. for 15 minutes before loading onto 6% gel. Gels were imaged using an Odyssey Li-COR. ImageJ was used to quantify band intensity and fraction bound DNA was calculated by dividing band intensity of bound DNA by the band intensity of the free DNA from a vehicle treated lane. A four-parameter dose-response curve fit to a plot of normalized fraction bound DNA vs. log B-Z concentration yields an IC50 which was reported as the apparent KD.

Trypsin = target: T1, Trypsin (Sus scrofa, UniProt P00761); assay: In vitro trypsin stability assay; format: in vitro ADME
T1 construct: purchased Thermo-Pierce
T1 sequence (P00761 9-231): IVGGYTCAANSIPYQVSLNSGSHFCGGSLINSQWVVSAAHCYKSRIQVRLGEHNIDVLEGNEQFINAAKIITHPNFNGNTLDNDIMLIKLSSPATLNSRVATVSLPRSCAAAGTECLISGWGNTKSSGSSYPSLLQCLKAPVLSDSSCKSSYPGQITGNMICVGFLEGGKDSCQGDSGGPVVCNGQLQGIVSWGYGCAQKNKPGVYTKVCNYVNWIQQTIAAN
Description: Each STR, 30 μM, was dissolved in 330 μL of 20 mM phosphate buffer pH 7.4 in a microcentrifuge tube and heated to 37° C. on a tabletop shaker (500 rpm). 30 μL of the reaction mixture was added to 60 uL of quenching solution (ACN+3% formic acid with 500 nM fmoc-lysine-OH internal standard) for 0 s timepoint sample. Thermo-Pierce MS-Grade Trypsin was added to a final concentration of 0.5 μg/ml and additional 30 μL aliquots were quenched at indicated timepoints. Quenched samples were cooled to 4° C. and centrifuged at 20,000×G for 3 min. […] Intact STR was calculated by normalizing the background subtracted integrated area under the curve for the EIC of (M+4H)/4, ±0.5 mass units, where M is mass and H is hydrogen ion, to the integrated area under the curve for the A280 peak of the internal standard. Fraction intact STR was calculated by dividing the intact STR by the normalized STR signal in the initial 0 s sample. GraphPad Prism was used to plot fraction intact STR vs time, and the proteolytic half-life was derived using a non-linear one-phase decay with the plateau constant set equal to zero.

[2] = Solubility in RPMI media+10% FBS; format: physicochemical; settings: RPMI media with 10% FBS, read-out: soluble concentration
E-box DNA = format: binding
Description: as §1, with “For DNA probe specificity experiments B-Z (100 nM), STR69 (1 μM), and STR640 (125 nM) and MAX (10 nM) were incubated with 1 nM IRD-labeled oligo and 0.01 mg/ml salmon sperm DNA for 30 minutes at RT in binding buffer. All samples were equilibrated to 4° C. for 15 minutes before loading onto 6% gel. Gels were imaged using an Odyssey Li-COR.” left out, “A four-parameter dose-response curve fit to a plot of normalized fraction bound DNA vs. log B-Z concentration yields an IC50 which was reported as the apparent KD.” left out

[3] = Circular dichroism spectroscopy; format: physicochemical; settings: 25-85° C.
Description: Lyophilized STR samples were resuspended in 20 mM phosphate buffer pH 7.4 and diluted to 10 μM. Circular dichroism spectra were obtained on a Jasco J-170 using a 0.1 cm quartz cuvette with the following settings: wavelength, 260-180 nm; data pitch, 1.0 nm; scan rate, 50 nm min^−1; accumulations, 3; temperature, 25-85° C. with 6° C. increments. Means-Movement smoothing at the lowest setting was applied to the recorded data.

[4] = tested on: duplex DNA probes E1, E2, and E3; assay: DNA probe specificity EMSA; format: binding; settings: STR69 1 μM, STR640 125 nM; for DNA motif specificity: B-Z 100 nM, probes E1, E2, E3
Description: as §1

Substance: MAX: Human MAX (residues 22-102) protein expressed with N-terminal hexahistidine tag, used in homodimeric form
- competition by DNA in which the E-box had been replaced entirely [1]: no competition
- competition by DNA with mutation of the two central E-box nucleotides (CG to TA) [1]: some competition
- competition of E-box probe binding by excess unlabeled E-box oligonucleotide [1]: effectively competed
- half-life in trypsin stability assay (Trypsin; 0.5 μg/ml trypsin, 37° C.): 20 s

Substance: I: Ac-PRFQSA[S5]DKR[S5]HHNALERKRRDHIKDSFHKLRDSVP-NH2 / II: Ac-SRAQILCKATEYIQRLR[S5]KIR[S5]LE-NH2 (staple I:7-I:11, II:18-II:22; linker I:30-II:7 via X1) [B11-Z80]
- solubility [2]: > 75 µM

Substance: I: Ac-KRAHHNALERKRRDHIKDSFHKLRDSVP-NH2 / II: Ac-SRAQILCKATEYIQY[Nle]RRKN-NH2 (linker I:22-II:7 via X1) [B-Z]
- trypsin proteolysis (in words) (Trypsin; LC-MS): rapidly proteolyzed at several positions
- EMSA Fraction bound (sDBD = 500 nM) (E-box DNA): 100%

Substance: I: Ac-PRFQSA[S5]DKR[S5]HHNALERKRRDHIKDSFHKLRDSVP-NH2 / II: Ac-SR[Aib]QILCQATEYIQSLRR[S5]IHT[S5]E-NH2 (staple I:7-I:11, II:19-II:23; linker I:30-II:7 via X1) [B11-Z70]
- solubility [2]: > 75 µM

Further lines, with some results ahead:

- stability in conditioned media (in words) (E-box probe): increased stability in conditioned media
Substance: I: Ac-PRFQSA[S5]DKR[S5]HHNALERKRRDHIKDSFHKLRDSVP-NH2 / II: Ac-SR[Aib]QILCQATEYIQ[S5][Nle]RR[S5]LHTHE-NH2 (staple I:7-I:11, II:15-II:19; linker I:30-II:7 via X1) [STR116, Ac-PRFQSA(S5)DKR(S5)HHNALERKRRDHIKDSFHK(GlyMal)LRDSVP-NH2 + Ac-SR(Aib)QILCQATEYIQ(S5)(Nle)RR(S5)LHTHE-NH2]

- stability in conditioned media (in words) (E-box probe): increased stability in conditioned media
Substance: I: Ac-PRFQSA[S5]DKR[S5]HHNALERKRRDHIKDSFHKLRDSVP-NH2 / II: Ac-SRAQILCKATEYIQYLR[S5]KIH[S5]LE-NH2 (staple I:7-I:11, II:18-II:22; linker I:30-II:7 via X1) [STR118, Ac-PRFQSA(S5)DKR(S5)HHNALERKRRDHIKDSFHK(GlyMal)LRDSVP-NH2 + Ac-SRAQILCKATEYIQYLR(S5)KIH(S5)LE-NH2]
- thermal stability by temperature-dependent CD [3]: highly thermally stable, with retention of helicity even at 85 °C

- binding to the E-box motif [4]: minimal binding
Substance: Ac-RREIANSNERRRMQSINAGFQK(GlyMal)LKTLIP-NH2 + Ac-SKAAILCQTAEYIFRLRRKIHTLE-NH2 (chain 1 XREIANSNERRRMQSINAGFQXLKTLIX; chain 2 XKAAILCQTAEYIFRLRRKIHTLX; GlyMal ligation; N-acetyl; C-terminal amides; (1)..(1) Xaa is acetyl-R; (22)..(22) Xaa is K(GlyMal) (glycylmaleimide-lysine); (28)..(28) Xaa is P-NH2; (1)..(1) Xaa is acetyl-S; (24)..(24) Xaa is E-NH2) [STR640]
- DNA motif specificity [4]: show specificity for the OLIG2- and TFAP4-preferred motifs (target sequences in E3 and E2, respectively)

- binding to the E-box motif [4]: minimal binding
Substance: Ac-LRLKINSRERKRMHDLNIAMDK(ButMal)LREVMP-NH2 + Ac-SKIATLCLARNYILMLTNSL-NH2 (chain 1 XRLKINSRERKRMHDLNIAMDXLREVMX; chain 2 XKIATLCLARNYILMLTNSX; not fully specified; ButMal ligation; N-acetyl; C-terminal amides; (1)..(1) Xaa is acetyl-L; (22)..(22) Xaa is K(ButMal) (butyrlmaleimide-lysine); (28)..(28) Xaa is P-NH2; (1)..(1) Xaa is acetyl-S; (20)..(20) Xaa is L-NH2) [STR69]
- DNA motif specificity [4]: show specificity for the OLIG2- and TFAP4-preferred motifs (target sequences in E3 and E2, respectively)
